{"source": "patent US8058284B2", "about": "“[4-(6-halo-7-substituted-2,4-dioxo-1,4-dihydro-2H-quinazolin-3-yl)-phenyl]-5-chloro-thiophen-2-yl-sulfonylureas and forms and methods related thereto” (Portola Pharmaceuticals, Inc., priority 2005, dated 2011)", "key": {"[1]": {"test_system": "ADP-induced human platelet aggregation (human platelet-rich plasma)", "test": "inhibition of ADP-mediated platelet aggregation in platelet-rich plasma (PRP assay)", "type": "cell-based", "method": "Platelet-rich plasma (PRP) is prepared by centrifugation of whole blood at 160×g for 20 minutes at room temperature. […] PPP is prepared by centrifugation of the remaining blood sample (after removal of PRP) for 20 minutes at 800×g. This preparation of PRP can subsequently be used for aggregation assays in either a 96-well plate or standard cuvette aggregometry.\nJ. Clin. Pathol. […] All steps are performed at room temperature. […] The plates are then agitated for 5 min on a microtiter plate shaker and the 5 minute reading is obtained in the plate reader. […] IC50s were derived by non-linear regression analysis."}, "[2]": {"target": "T1, P2Y12 receptor on platelets (Homo sapiens, UniProt Q9H244)", "T1 construct": "endogenous in cells; host or cells: human platelets, apyrase-washed: outdated from hospital blood banks, or fresh", "T1 sequence (Q9H244 whole entry)": "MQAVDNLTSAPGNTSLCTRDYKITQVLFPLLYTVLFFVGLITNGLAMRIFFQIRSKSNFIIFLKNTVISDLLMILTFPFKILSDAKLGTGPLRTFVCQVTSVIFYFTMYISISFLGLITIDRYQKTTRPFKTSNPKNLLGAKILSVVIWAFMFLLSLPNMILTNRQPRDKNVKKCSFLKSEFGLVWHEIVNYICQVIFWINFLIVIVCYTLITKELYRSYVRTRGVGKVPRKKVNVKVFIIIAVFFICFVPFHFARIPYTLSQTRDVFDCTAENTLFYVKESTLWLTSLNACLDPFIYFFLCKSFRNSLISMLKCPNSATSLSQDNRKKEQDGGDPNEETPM", "test": "platelet ADP receptor binding assay (ARB): inhibition of [3H]2-MeS-ADP binding to platelets", "details": "apyrase-washed human platelets", "method": "1. The Ability of Candidate Molecules to Inhibit the Binding of [3H]2-MeS-ADP to the P2Y12 Receptor on Platelets was Determined Using a Radioligand Binding Assay.\nUtilizing this assay the potency of inhibition of such compounds with respect to [^3H]2-MeS-ADP binding to whole platelets is determined. Under the conditions described in II (3) below, the binding of [^3H]2-MeS-ADP is solely due to the interaction of this ligand with the P2Y12 receptor, in that all the specific binding measured in this assay is compatible with a P2Y12 antagonist (i.e., the specific binding is reduced to background levels by competition with an excess of P2Y12 antagonist, with no competition of binding when a P2Y1 antagonist is pre-incubated with the platelet preparation). […]\nA platelet ADP receptor binding assay (ARB) using the tritiated potent agonist ligand [^3H]2-MeS-ADP (Jantzen, H. M. et al. (1999) Thromb. Hemost. 81:111-117) has been adapted to the 96-well microtiter format. […] Total binding is determined in the absence of test compounds. […] The platelet-bound radioactivity on the filtermats is determined in a scintillation counter (Microbeta 1450, Wallac Inc., Gaithersburg, Md.). Specific binding is determined by subtraction of non-specific binding from total binding, and specific binding in the presence of test compounds is expressed as % of specific binding in the absence of test compound dilutions. […]"}}, "note": "Like-named read-outs stand apart in the source and are kept apart here."}
{"smiles": "CNc1cc2[nH]c(=O)n(-c3ccc(NC(=O)NS(=O)(=O)c4ccc(Cl)s4)cc3)c(=O)c2cc1Cl", "note": "[Example 3, [4-(6-chloro-7-methylamino-2,4-dioxo-1,4-dihydro-2H-quinazolin-3-yl)-phenyl]-5-chloro-thiophen-2-yl-sulfonylurea]", "values": [{"measurement": "IC50", "setting": "[1]", "value": "10 to 30", "unit": "µM"}, {"measurement": "IC50", "setting": "[2]", "value": "0.05 to 0.5", "unit": "µM"}]}
{"smiles": "CNc1cc2[nH]c(=O)n(-c3ccc(NC(=O)NS(=O)(=O)c4ccc(Cl)s4)cc3)c(=O)c2cc1F", "note": "[Example 2]", "values": [{"measurement": "IC50", "setting": "[1]; Platelet", "value": "< 10", "unit": "µM"}, {"measurement": "IC50", "setting": "[2]", "value": "< 0.05", "unit": "µM"}]}
